From patent USRE39591E1, “6-O-substituted ketolides having antibacterial activity” (Abbott Laboratories, priority 1996, dated 2007) come the findings set out here.

The structures appear in SMILES notation. In brackets after ≈: the same amount, converted by molar mass.

The test system of this assay is up to 32 different microorganisms. Kind of assay: in vitro antibacterial activity (MIC), agar dilution on Brain Heart Infusion (BHI) agar with Steers replicator. The assay is classed as cell-based. Particulars: unit assumed. The method, then:
Representative compounds of the present invention were assayed in vitro for antibacterial activity as follows: Twelve petri dishes containing successive aqueous dilutions of the test compound mixed with 10 mL of sterilized Brain Heart Infusion (BHI) agar (Difco 0148-01-5) were prepared. Each plate was inoculated with 1:100 (or 1:10 for slow-growing strains, such as Micrococcus and Streptococcus) dilutions of up to 32 different microorganisms, using a Steers replicator block. The inoculated plates were incubated at 35°-37° C. for 20 to 24 hours. In addition, a control plate, using BHI agar containing no test compound, was prepared and incubated at the beginning and end of each test.
An additional plate containing a compound having known susceptibility patterns for the organisms being tested and belonging to the same antibiotic class as the test compound was also prepared and incubated as a further control, as well as to provide test-to-test comparability. Erythromycin A was used for this purpose.
After incubation, each plate was visually inspected. The minimum inhibitory concentration (MIC) was defined as the lowest concentration of drug yielding no growth, a slight haze, or sparsely isolated colonies on the inoculum spot as compared to the growth control.
On the technique in general: In agar dilution the substance is mixed into plates at graded concentrations.

Where [1] appears, read: Candida albicans CCH 442 (code TT).
Setting [2] is: Enterococcus faecism ATCC 8043 (code II).
[3] abbreviates: Escherichia coli DC-2 (code SS).
Where [4] appears, read: Escherichia coli JUHL (code QQ).
Setting [5] is: Micrococcus luteus ATCC 4698 (code PP).
Where [6] appears, read: Micrococcus luteus ATCC 9341 (code OO).
Setting [7] is: Mycobacterium smegmatis ATCC 114 (code UU).
[8] abbreviates: Nocardia Asteroides ATCC9970 (code VV).
[9] abbreviates: Staphylococcus aureus 1775 (code GG).
Where [10] appears, read: Staphylococcus aureus A5177 (code BB).
Setting [11] is: Staphylococcus aureus A-5278 (code CC).
Setting [12] is: Staphylococcus aureus ATCC 6538P (code AA).
Setting [13] is: Staphylococcus aureus CMX 553 (code FF).
Setting [14] is: Staphylococcus aureus CMX 642A (code DD).
Where [15] appears, read: Staphylococcus aureus NCTC10649M (code EE).
Where [16] appears, read: Staphylococcus epidermidis 3519 (code HH).
The mark [17] stands for this setting: Streptococcus agalactiae CMX 508 (code KK).
[18] abbreviates: Streptococcus bovis A-5169 (code JJ).
Where [19] appears, read: Streptococcus pyogenes 930 (code MM).
The mark [20] stands for this setting: Streptococcus pyogenes EES61 (code LL).
The mark [21] stands for this setting: Streptococcus pyogenes PIU 2548 (code NN).
Setting [22] is: Haemophilis influenzae DILL AMP R (code WW).
Where [23] appears, read: Streptococcus Pneumonia 5649 (code ZZA).
The mark [24] stands for this setting: Streptococcus Pneumonia 5979 (code ZZ).
The mark [25] stands for this setting: Streptococcus Pneumonia ATCC6303 (code XX).
The mark [26] stands for this setting: Streptococcus Pneumonia GYR 1171 (code YY).

For `CC[C@H]1OC(=O)[C@H](C)C(=O)[C@H](C)[C@@H](O[C@@H]2O[C@H](C)C[C@H](N(C)C)[C@H]2O)[C@@](C)(OCC=NOCc2ccc3ccccc3c2)C[C@@H](C)C(=O)[C@H](C)[C@H]2NC(=O)O[C@@]21C` [Example 236, Compound of Formula (IX): L is CO, T is NH, R is —CH2CH═NOCH2(2-naphthyl)], the MIC was 0.2 µg/mL (organism code AA); 0.2 µg/mL (organism code BB); > 100 µg/mL (organism code CC); 0.2 µg/mL (organism code DD); 0.2 µg/mL (organism code EE); 0.2 µg/mL (organism code FF). Further, the MIC runs as follows: (organism code GG) > 100 µg/mL; (organism code HH) 0.2 µg/mL; (organism code II) 0.05 µg/mL; (organism code JJ) 0.05 µg/mL; (organism code KK) 0.05 µg/mL; (organism code LL) 0.01 µg/mL. Besides, the MIC is, setting by setting: (organism code MM) 25 µg/mL; (organism code NN) 0.2 µg/mL; (organism code OO) 0.05 µg/mL; (organism code PP) 0.1 µg/mL; (organism code QQ) 50 µg/mL; (organism code RR) 0.39 µg/mL. Further, the MIC (organism code SS) was > 100 µg/mL; the MIC (organism code TT) was > 100 µg/mL; the MIC (organism code UU) was found to be 0.39 µg/mL; the MIC (organism code VV) was determined as 0.2 µg/mL; the MIC (organism code WW) was determined as 4 µg/mL; the MIC (organism code XX) was found to be 0.03 µg/mL. The MIC by setting is: (organism code YY) 0.03 µg/mL; (organism code ZZ) 32 µg/mL.

For the compound `CCC1OC(=O)C(C)C(=O)C(C)C(OC2OC(C)CC(N(C)C)C2O)C(C)(OCC=Cc2ccc3[nH]cnc3c2)CC(C)C(=O)C(C)C2NC(=O)OC12C` (stereo not drawn) [Example 205, R is —CH2CH═CH-(5-benzimidazolyl)], the MIC by setting is: (organism code XX) 0.03 µg/mL (≈ 0.0397 µM); (organism code YY) 0.06 µg/mL (≈ 0.0795 µM); (organism code ZZ) > 64 µg/mL; (organism code ZZA) 4 µg/mL (≈ 5.3 µM).

In the case of `CC[C@H]1OC(=O)[C@H](C)C(=O)[C@H](C)[C@@H](O[C@@H]2O[C@H](C)C[C@H](N(C)C)[C@H]2O)[C@@](C)(OCC=NOCc2ccc([N+](=O)[O-])cc2)C[C@@H](C)C(=O)[C@H](C)[C@H]2NC(=O)O[C@@]21C` [Example 230, Compound of Formula (IX): L is CO, T is NH, R is —CH2CH═NOCH2(4-NO2-phenyl)], the MIC runs as follows: (organism code AA) 0.1 µg/mL; (organism code BB) 0.1 µg/mL; (organism code CC) > 100 µg/mL; (organism code DD) 0.1 µg/mL; (organism code EE) 0.1 µg/mL; (organism code FF) 0.2 µg/mL. The MIC reads like this: (organism code GG) > 100 µg/mL; (organism code HH) 0.1 µg/mL; (organism code II) 0.05 µg/mL; (organism code JJ) ≤ 0.005 µg/mL; (organism code KK) ≤ 0.005 µg/mL; (organism code LL) ≤ 0.005 µg/mL. The MIC is, setting by setting: (organism code MM) > 100 µg/mL; (organism code NN) 0.05 µg/mL; (organism code OO) 0.05 µg/mL; (organism code PP) 0.2 µg/mL; (organism code QQ) 100 µg/mL; (organism code RR) 0.39 µg/mL. Also, the MIC reads like this: (organism code SS) > 100 µg/mL; (organism code TT) > 100 µg/mL; (organism code UU) 0.78 µg/mL; (organism code VV) 0.05 µg/mL; (organism code WW) 2 µg/mL; (organism code XX) 0.03 µg/mL. The MIC reads like this: (organism code YY) 0.015 µg/mL; (organism code ZZ) 128 µg/mL; (organism code ZZA) 0.25 µg/mL.

Turning to `CC[C@H]1OC(=O)[C@H](C)C(=O)[C@H](C)[C@@H](O[C@@H]2O[C@H](C)C[C@H](N(C)C)[C@H]2O)[C@@](C)(OCCN)C[C@@H](C)C(=O)[C@H](C)[C@@H](O)[C@]1(C)O` [Example 8, Compound of Formula (VIII): X is O, R is —CH2CH2NH2], the MIC reads like this: under setting [1], > 100 µg/mL; under setting [2], 6.2 µg/mL; under setting [3], > 100 µg/mL; under setting [4], > 100 µg/mL; (Escherichia coli SS (code RR)) 6.2 µg/mL; under setting [5], 12.5 µg/mL. The MIC was 6.2 µg/mL under setting [6]; > 100 µg/mL under setting [7]; 12.5 µg/mL under setting [8]; > 100 µg/mL under setting [9]; 25 µg/mL under setting [10]; > 100 µg/mL under setting [11]. Also, the MIC under setting [12] was found to be 25 µg/mL; the MIC under setting [13] is 50 µg/mL; the MIC under setting [14] amounted to 6.2 µg/mL; the MIC under setting [15] is 6.2 µg/mL; the MIC under setting [16] stood at 100 µg/mL; the MIC under setting [17] was determined as 6.2 µg/mL. Moreover, the MIC runs as follows: under setting [18], 3.1 µg/mL; under setting [19], > 100 µg/mL; under setting [20], 6.2 µg/mL; under setting [21], 12.5 µg/mL.

Turning to `C=CCO[C@@]1(C)C[C@@H](C)C(=O)[C@H](C)[C@H]2OC(=O)O[C@]2(C)[C@@H](CC)OC(=O)[C@H](C)C(=O)[C@H](C)[C@H]1O[C@@H]1O[C@H](C)C[C@H](N(C)C)[C@H]1O` [Example 71, Compound of Formula (IX): L is CO, T is O, R is —CH2CH═CH2], the MIC is, setting by setting: under setting [1], > 100 µg/mL; under setting [2], 1.56 µg/mL; under setting [3], > 100 µg/mL; under setting [4], > 100 µg/mL; (Escherichia coli SS (code RR)) 3.1 µg/mL; under setting [22], 64 µg/mL. In addition, the MIC was 0.78 µg/mL under setting [5]; 25 µg/mL under setting [7]; 0.39 µg/mL under setting [8]; > 100 µg/mL under setting [9]; 0.39 µg/mL under setting [10]; > 100 µg/mL under setting [11]. Also, the MIC by setting is: under setting [12], 0.78 µg/mL; under setting [13], 3.1 µg/mL; under setting [14], 1.56 µg/mL; under setting [15], 0.78 µg/mL; under setting [16], 3.1 µg/mL; under setting [23], 1 µg/mL. In addition, the MIC runs as follows: under setting [24], > 128 µg/mL; under setting [25], 0.25 µg/mL; under setting [26], 0.25 µg/mL; under setting [17], 0.2 µg/mL; under setting [18], 0.2 µg/mL; under setting [19], > 100 µg/mL. This compound returned an MIC under setting [20] of 0.39 µg/mL and an MIC under setting [21] of 0.39 µg/mL.

Take `CC[C@H]1OC(=O)[C@H](C)C(=O)[C@H](C)[C@@H](O[C@@H]2O[C@H](C)C[C@H](N(C)C)[C@H]2O)[C@@](C)(OCC(O)C#N)C[C@@H](C)C(=O)[C@H](C)[C@@H](O)[C@]1(C)O` (stereo partly drawn) [Example 175, Compound of Formula (VIII): X is O, R is CH2—CH(OH)—CN]: the MIC reads like this: under setting [1], > 100 µg/mL; under setting [2], 0.02 µg/mL; under setting [3], > 100 µg/mL; under setting [4], > 100 µg/mL; (Escherichia coli SS (code RR)) 0.78 µg/mL; under setting [22], 64 µg/mL. In addition, the MIC under setting [5] came out at 0.1 µg/mL; the MIC under setting [6] was 0.05 µg/mL; the MIC under setting [7] was found to be 0.78 µg/mL; the MIC under setting [8] is 0.39 µg/mL; the MIC under setting [9] turned out to be 12.5 µg/mL; the MIC under setting [10] came to 0.39 µg/mL. In addition, the MIC runs as follows: under setting [11], 25 µg/mL; under setting [12], 0.2 µg/mL; under setting [13], 0.78 µg/mL; under setting [14], 0.78 µg/mL; under setting [15], 0.78 µg/mL; under setting [16], 0.78 µg/mL. For the same compound, the MIC reads like this: under setting [23], 2 µg/mL; under setting [24], 8 µg/mL; under setting [25], 0.03 µg/mL; under setting [26], 0.03 µg/mL; under setting [17], 0.02 µg/mL; under setting [18], 0.02 µg/mL. This compound yielded an MIC under setting [19] of 3.1 µg/mL, an MIC under setting [20] of 0.01 µg/mL and an MIC under setting [21] of 0.39 µg/mL.

Turning to `CCC1OC(=O)C(C)C(=O)C(C)C(OC2OC(C)CC(N(C)C)C2O)C(C)(OCC(O)c2ccccc2)CC(C)C(=O)C(C)C2NC(=O)OC12C` (single isomer, unassigned) [Example 261B], the MIC (organism code AA) turned out to be 3.1 µg/mL (≈ 4.31 µM); the MIC (organism code BB) is 3.1 µg/mL (≈ 4.31 µM); the MIC (organism code CC) is > 100 µg/mL; the MIC (organism code DD) was determined as 6.2 µg/mL (≈ 8.62 µM); the MIC (organism code EE) was 3.1 µg/mL (≈ 4.31 µM); the MIC (organism code FF) stood at 3.1 µg/mL (≈ 4.31 µM). Also, the MIC runs as follows: (organism code GG) > 100 µg/mL; (organism code HH) 6.2 µg/mL (≈ 8.62 µM); (organism code II) 0.78 µg/mL (≈ 1.09 µM); (organism code JJ) 0.39 µg/mL (≈ 0.543 µM); (organism code KK) 0.39 µg/mL (≈ 0.543 µM); (organism code LL) 0.39 µg/mL (≈ 0.543 µM). In addition, the MIC runs as follows: (organism code MM) > 100 µg/mL; (organism code NN) 0.78 µg/mL (≈ 1.09 µM); (organism code OO) 0.39 µg/mL (≈ 0.543 µM); (organism code PP) 1.56 µg/mL (≈ 2.17 µM); (organism code QQ) > 100 µg/mL; (organism code RR) 6.2 µg/mL (≈ 8.62 µM). Moreover, the MIC was > 100 µg/mL (organism code SS); > 100 µg/mL (organism code TT); 25 µg/mL (≈ 34.8 µM) (organism code UU); 6.2 µg/mL (≈ 8.62 µM) (organism code VV); 32 µg/mL (≈ 44.5 µM) (organism code WW); 0.5 µg/mL (≈ 0.696 µM) (organism code XX). Besides, the MIC runs as follows: (organism code YY) 0.5 µg/mL (≈ 0.696 µM); (organism code ZZ) > 128 µg/mL; (organism code ZZA) 1 µg/mL (≈ 1.39 µM).
